Source: US20050096347A1, “Beta3-Adrenoreceptor agonists, agonist compositions and methods of using” (Molecular Design International, Inc., priority 1997, published 2005)
Where a name gives a salt, the structure may show the parent alone.

What was measured:
Human β1-AR = Human β1-AR (Homo sapiens, UniProt P08588); assay: CRE-luciferase reporter gene (CRE-LUC) assay, CHO cells expressing human β1-AR
Procedure: (§1) cAMP response element (CRE)-luciferase(LUC) reporter gene (CRE-LUC) assay. […] The transfected CHO cells were seeded at a density of 40,000/well in 96 well microtiter plates (Culturplate, Packard) and allowed to grow for 20 hours. After 20 hours, the cells were treated with varying drug concentrations (10^−11 to 10^−4 M) for 4 hours. Following drug exposures, the cells were lysed and luciferase activity measured using the LucLite® assay kit (Packard). Changes in light production were measured by a Topcount® luminometer (Packard).

Human β2-AR = Human β2-AR (Homo sapiens, UniProt P07550); assay: CRE-luciferase reporter gene (CRE-LUC) assay, CHO cells expressing human β2-AR
Human β2-AR, sequence (P07550 whole entry): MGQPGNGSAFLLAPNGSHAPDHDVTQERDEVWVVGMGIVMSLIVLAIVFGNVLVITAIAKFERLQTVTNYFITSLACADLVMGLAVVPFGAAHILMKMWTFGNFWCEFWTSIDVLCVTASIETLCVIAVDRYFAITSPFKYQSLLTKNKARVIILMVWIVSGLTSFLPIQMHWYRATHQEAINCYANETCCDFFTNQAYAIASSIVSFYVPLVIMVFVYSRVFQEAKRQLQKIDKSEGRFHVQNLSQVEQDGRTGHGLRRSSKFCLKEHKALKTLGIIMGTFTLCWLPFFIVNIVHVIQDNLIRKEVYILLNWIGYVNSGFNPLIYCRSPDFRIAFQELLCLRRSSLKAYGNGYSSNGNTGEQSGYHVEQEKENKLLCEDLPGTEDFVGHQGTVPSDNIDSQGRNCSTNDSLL
Procedure: as §1

Human β3-AR = Human β3-AR (Homo sapiens, UniProt P13945); assay: CRE-luciferase reporter gene (CRE-LUC) assay, CHO cells expressing human β3-AR
Human β3-AR, sequence (P13945 whole entry): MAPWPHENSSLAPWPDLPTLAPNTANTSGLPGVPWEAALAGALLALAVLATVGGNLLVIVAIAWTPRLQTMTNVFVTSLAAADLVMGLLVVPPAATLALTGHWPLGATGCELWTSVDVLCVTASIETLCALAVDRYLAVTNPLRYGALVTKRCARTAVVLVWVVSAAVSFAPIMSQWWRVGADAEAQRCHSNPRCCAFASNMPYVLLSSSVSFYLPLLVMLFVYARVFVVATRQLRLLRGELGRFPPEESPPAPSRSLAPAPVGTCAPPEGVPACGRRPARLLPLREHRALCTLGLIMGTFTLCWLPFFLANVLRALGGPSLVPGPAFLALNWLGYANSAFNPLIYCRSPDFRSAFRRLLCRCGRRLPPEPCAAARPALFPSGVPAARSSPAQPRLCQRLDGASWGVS
Procedure: as §1

Human β1-AR, sequence (P08588 whole entry): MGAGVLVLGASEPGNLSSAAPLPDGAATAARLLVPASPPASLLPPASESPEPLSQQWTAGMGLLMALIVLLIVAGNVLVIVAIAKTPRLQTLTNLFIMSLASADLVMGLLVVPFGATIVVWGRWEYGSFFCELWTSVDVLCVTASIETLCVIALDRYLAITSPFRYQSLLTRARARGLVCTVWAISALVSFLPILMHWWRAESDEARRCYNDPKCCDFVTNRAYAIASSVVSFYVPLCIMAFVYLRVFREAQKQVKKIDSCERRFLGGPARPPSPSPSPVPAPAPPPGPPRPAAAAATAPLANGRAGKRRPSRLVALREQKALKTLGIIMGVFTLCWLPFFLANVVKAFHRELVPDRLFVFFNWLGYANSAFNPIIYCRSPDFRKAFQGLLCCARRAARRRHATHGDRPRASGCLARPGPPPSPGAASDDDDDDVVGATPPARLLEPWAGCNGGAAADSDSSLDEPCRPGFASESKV

melting point | EC50 (Human β1-AR) | EC50 (Human β2-AR) | EC50 (Human β3-AR) | Structure (SMILES)
196 to 200 °C (dec.) | – | – | – | COc1cc2c(cc1OC)C(Cc1cc(I)c(NC(C)=O)c(I)c1)NCC2 (stereo not shown) (as salt: hydrochloride) [6,7-Dimethoxy-acetamidoDITMQ, 1-(4-Acetamido-3,5-diiodobenzyl)-6,7-dimethoxy-1,2,3,4-tetrahydroisoquinoline Hydrochloride]
– | 1950 nM | 229 nM | 35.5 nM | COc1c(I)cc(CC2NCCc3cc(O)ccc32)cc1I (stereo not shown) [6-Monophenolic TMQ analog (A-4)]
